Source: patent US9029553B2, “2-anilino nicotinyl linked 2-amino benzothiazole conjugates and process for the preparation thereof” (Council of Scientific & Industrial Research, priority 2011, dated 2015)

What was measured:
[1] = test system: 502713; assay: SRB percentage growth inhibition (NCI protocol); type: cell-based; conditions: Homo sapiens, 48 hrs exposure
Method: (§1) 2-Anilino nicotinyl linked 2-amino benzothiazoles conjugates of formula 4-8 have been tested against ten and eleven human cancer cell lines for 10 and 1 μM respectively derived from nine cancer types (leukemia, non-small cell lung cancer, colon cancer, CNS cancer, melanoma, ovarian cancer, renal cancer, prostate cancer and breast cancer) as per NCI protocol. For each compound, percentage of growth inhibition was calculated for individual cell lines at a minimum of two concentrations (1 and 10 μM). A protocol of 48 hrs continuous drug exposure was used, and a sulforhodamine B (SRB) protein assay was used to estimate cell viability or growth. The percentage of growth inhibition compared with the control was calculated in table 1 and table 2.

[2] = test system: A549; assay: SRB percentage growth inhibition (NCI protocol); type: cell-based; conditions: Homo sapiens, 48 hrs exposure
Method: as §1

[3] = test system: DU145; assay: SRB percentage growth inhibition (NCI protocol); type: cell-based; conditions: Homo sapiens, DU-145, 48 hrs exposure
Method: as §1

[4] = test system: HCT-15; assay: SRB percentage growth inhibition (NCI protocol); type: cell-based; conditions: Homo sapiens, 48 hrs exposure
Method: as §1

[5] = test system: HEP-2; assay: SRB percentage growth inhibition (NCI protocol); type: cell-based; conditions: Homo sapiens, 48 hrs exposure
Method: as §1

[6] = test system: Hela; assay: SRB percentage growth inhibition (NCI protocol); type: cell-based; conditions: Homo sapiens, 48 hrs exposure
Method: as §1

[7] = test system: IGR-OV-1; assay: SRB percentage growth inhibition (NCI protocol); type: cell-based; conditions: Homo sapiens, IGROV-1, 48 hrs exposure
Method: as §1

[8] = test system: IMR-32; assay: SRB percentage growth inhibition (NCI protocol); type: cell-based; conditions: Homo sapiens, 48 hrs exposure
Method: as §1

[9] = test system: MCF-7; assay: SRB percentage growth inhibition (NCI protocol); type: cell-based; conditions: Homo sapiens, MCF7, 48 hrs exposure
Method: as §1

[10] = test system: OVCAR-5; assay: SRB percentage growth inhibition (NCI protocol); type: cell-based; conditions: Homo sapiens, 48 hrs exposure
Method: as §1

[11] = test system: PC-3; assay: SRB percentage growth inhibition (NCI protocol); type: cell-based; conditions: Homo sapiens, 48 hrs exposure
Method: as §1

[12] = test system: SK-NS-H; assay: SRB percentage growth inhibition (NCI protocol); type: cell-based; conditions: Homo sapiens, SK-N-SH, 48 hrs exposure
Method: as §1

[13] = test system: SiHa; assay: SRB percentage growth inhibition (NCI protocol); type: cell-based; conditions: Homo sapiens, 48 hrs exposure
Method: as §1

[14] = test system: Sw-620; assay: SRB percentage growth inhibition (NCI protocol); type: cell-based; conditions: Homo sapiens, 48 hrs exposure
Method: as §1

[15] = test system: HCT-15; assay: MTT inhibition of cell proliferation; type: cell-based; conditions: Homo sapiens, 48 h
From the text: (§2) In order to determine the mode of action of cell death in cancer cells, first we explored the cytotoxic potential of different structural analogs of benzothiazoles on different human cancer cell lines. […] These compounds have limited or no cytotoxicity to cervical cancer SiHa, HeLa cells, breast cancer MCF-7 cells and colon cancer HCT-15 cells.

[16] = test system: HL-60; assay: MTT inhibition of cell proliferation; type: cell-based; conditions: Homo sapiens, 48 h
From the text: as §2

[17] = test system: Hela; assay: MTT inhibition of cell proliferation; type: cell-based; conditions: Homo sapiens, 48 h
From the text: as §2

[18] = test system: MCF-7; assay: MTT inhibition of cell proliferation; type: cell-based; conditions: Homo sapiens, MCF7, 48 h
From the text: as §2

[19] = test system: SiHa; assay: MTT inhibition of cell proliferation; type: cell-based; conditions: Homo sapiens, 48 h
From the text: as §2

[20] = test system: normal monkey kidney CV-1 cells; assay: MTT cytotoxicity in normal cells; type: cell-based; conditions: Primates
Method: These compounds were also evaluated for their cytotoxic potential in normal cells and for these purpose their IC50 value were also determine in normal monkey kidney CV-1 cells by using MTT method. The ratios of normal to cancer cells IC50 value were ranges from 10-1000 times (Table 5).

[21] = test system: HL-60 cells; assay: Cell cycle analysis (FACS) by flow cytometry; type: cell-based, human; conditions: 1 μM, up to 24 h
From the text: The damage was more apparent with compound 8 and 6 (90% and 60% DNA damaged, respectively).

[22] = test system: HL-60 cells; assay: Flow cytometric analysis of reactive oxygen species (DCFH-DA); type: cell-based, human; conditions: 1 μM
Method: It was clear that these compounds were cytotoxic and induce apoptosis in HL-60 cells, now we have to found out the early events which were responsible for the induction of apoptosis like reactive oxygen species (ROS) or nitric oxide (NO) generation. Intracellular peroxide (ROS) in the cells was measured by DCFH-DA by using flow cytometry. Cells were incubated with tested compounds at 1 μM for 24 h in HL-60 cells and analyzed by flow cytometry after double staining with DCFH-DA (FIG. 7). Cells were analyzed for fluorescence intensity in FL1 vs. cell count. There was hardly any DCF fluorescence (ROS positive cells) in the untreated HL-60 cells, and this status remained unchanged when cells were incubated for 24 hr with compounds 7 and 8. […] Compounds 4 and 6 also induce the generation of peroxide in HL-60 cells (31 and 16% increase, respectively).

[23] = test system: survivin; assay: Western blot of cell death targets; type: cell-based, human; conditions: 1 μM, 24 h, HL-60
Method: Apoptosis was further characterized by the western blot analysis. Cells were treated with tested compounds at 1 μM for 24 h and expression of key apoptotic proteins like NF-kB, survivin; PARP, Bcl-2 and HSP-90 were analyzed through western blot. Both NF-kB and survivin are highly expressed in HL-60 cells. NF-kB is a transcriptional factor regulating the expression of several genes in the cells whereas survivin is a cell cycle regulated inhibitor of apoptosis protein (IAP), mostly over expressed in most of the tumors.

[24] = test system: Ehrlich Ascites Carcinoma (EAC); assay: In vivo anticancer activity, Ehrlich ascites carcinoma; design: species or system Swiss mice; conditions: for No. of deaths / toxicity to animals: EAC mice
Method: Model: Ehrlich Ascites Carcinoma (EAC)
Ehrlich ascites carcinoma (EAC) cells were collected from the peritoneal cavity of the swiss mice harbouring 8-10 days old ascitic tumor. 1×10^7 EAC cells were injected intraperitoneally in Swiss mice selected for the experiment on day 0. The next day, animals were randomized and divided into different groups. The treatment groups contained 7 animals each and control group contained 10 animals. Treatment groups were treated with different doses of test substances intraperitoneally from day 1-9. One of the treatment group received 5-fluorouracil (20 mg/kg, i.p) and it served as positive control. The tumor bearing control group was similarly administered normal saline (0.2 ml, i.p.). On day 12, animals were sacrificed and ascitic fluid was collected from peritoneal cavity of each mouse for the evaluation of tumor growth. Percent tumor growth inhibition was calculated based on the total number of tumor cells present in the peritoneal cavity as on day 12 of the experiment using the following formula.

[25] = test system: topoisomerase II; assay: DNA topoisomerase-II inhibition assay; type: biochemical; conditions: 1 μM; etoposide 100 μM
From the text: DNA topoisomerases are nuclear enzymes capable of resolving the topology of DNA to allow its replication. So, proper relaxing is very important for successful replication cycle and thus for the cell survival. However, topoisomerases also serve as targets in the anticancer chemotherapy in which cell death serves an important purpose. Moreover, the topoisomerase targeting drugs can either be classified either topo posions, which act by stabilizing enzyme DNA cleavable complexes leading to DNA break or topo catalytic inhibitors, which act by stabilizing enzyme where both DNA strands remain intact and no DNA breaks occur. Importantly, all the topoisomerase inhibitors finally induce apoptosis. In the present study, all the five compounds 4-8 were first subjected to topoisomerase II inhibition assay.

[26] = 20 mg/Kg i.p. day 1-9, read day 12
[27] = 40 mg/Kg i.p. day 1-9, read day 12

O=C(Nc1nc2ccc([N+](=O)[O-])cc2s1)c1cccnc1Nc1ccc(F)cc1 [Compound 6, N3-(6-nitro-1,3-benzothiazol-2-yl)-2-(4-fluoroanilino)nicotinamide]
inhibition at 10 µM [1]: 66% | inhibition at 1 µM [2]: 27% | inhibition at 10 µM [2]: 18% | inhibition at 1 µM [3]: 31% | inhibition at 10 µM [3]: 51% | inhibition at 1 µM [4]: 22% | inhibition at 10 µM [4]: 55% | inhibition at 1 µM [5]: 53% | inhibition at 10 µM [5]: 52% | inhibition at 1 µM [6]: 40% | inhibition at 1 µM [7]: 25% | inhibition at 1 µM [8]: 31% | inhibition at 10 µM [8]: 33% | inhibition at 1 µM [9]: 39% | inhibition at 1 µM [10]: 27% | inhibition at 10 µM [10]: 53% | inhibition at 1 µM [11]: 26% | inhibition at 10 µM [12]: 63% | inhibition at 10 µM [13]: 23% | inhibition at 1 µM [14]: 9% | inhibition at 10 µM [14]: 67% | IC50 [15]: > 100 µM | IC50 [16]: 0.3 µM | IC50 [17]: 8 µM | IC50 [18]: > 100 µM | IC50 [19]: 7 µM | IC50 [20]: 15 µM | DNA damaged (sub-G0 fraction) [21]: 60% | increase in DCF positive cell population (ROS) ([22]; 24 h, HL-60, compared to control): 16% | survivin level (western blot) [23]: highest inhibition potential | Growth Inhibition (%) [24, 26]: 22.18% | No. of deaths / toxicity to animals ([24]; 20 mg/Kg i.p.): 0/7 | Growth Inhibition (%) ([24]; 30 mg/Kg i.p. day 1-9, read day 12): 43.11% | No. of deaths / toxicity to animals ([24]; 30 mg/Kg i.p.): 0/7 | Growth Inhibition (%) [24, 27]: 68.11% | No. of deaths / toxicity to animals ([24]; 40 mg/Kg i.p.): 4/7 and considerable toxicity | No. of deaths / toxicity to animals ([24]; 40 mg/Kg i.p., listed as Comp 6): 4/7

O=C(Nc1nc2ccc([N+](=O)[O-])cc2s1)c1cccnc1Nc1ccc(Cl)cc1Cl [Compound 7]
inhibition at 10 µM [1]: 2% | inhibition at 1 µM [2]: 15% | inhibition at 10 µM [2]: 19% | inhibition at 1 µM [3]: 36% | inhibition at 10 µM [3]: 39% | inhibition at 1 µM [4]: 4% | inhibition at 10 µM [4]: 75% | inhibition at 1 µM [5]: 46% | inhibition at 10 µM [5]: 14% | inhibition at 1 µM [6]: 0% | inhibition at 1 µM [7]: 24% | inhibition at 1 µM [8]: 42% | inhibition at 10 µM [8]: 48% | inhibition at 1 µM [9]: 80% | inhibition at 1 µM [10]: 19% | inhibition at 10 µM [10]: 0% | inhibition at 1 µM [11]: 27% | inhibition at 10 µM [12]: 50% | inhibition at 10 µM [13]: 35% | inhibition at 1 µM [14]: 12% | inhibition at 10 µM [14]: 61% | IC50 [15]: > 100 µM | IC50 [16]: 0.4 µM | IC50 [17]: > 100 µM | IC50 [18]: > 100 µM | IC50 [19]: > 50 µM | IC50 [20]: 0.8 µM | DCF fluorescence (ROS positive cells), in words ([22]; 24 hr, HL-60): unchanged | topoisomerase-II inhibition (DNA relaxation) [25]: more potent effect relative to etoposide | Growth Inhibition (%) [24, 26]: 63.89% | No. of deaths / toxicity to animals ([24]; 20 mg/Kg i.p.): without any deaths | No. of deaths / toxicity to animals ([24]; 20 mg/Kg i.p., listed as Comp 7): 0/7 | Growth Inhibition (%) [24, 27]: Intolerable | No. of deaths / toxicity to animals ([24]; 40 mg/Kg i.p.): 7/7
